Experimental data published in patent US7868026B2, “Therapeutic compounds” (Pfizer Inc., priority 2005, dated 2011).
Where two headings read alike, the source gives them in different places.

Tests used:
CYP3A4 [1] = target: T1, CYP3A4 (Homo sapiens, UniProt P08684); assay: Determination of compound Kiapp against recombinant CYP3A4 enzyme (BFC fluorescent substrate); type: biochemical
Experimental: 1. Determination of compound Kiapp
A determination of the Kiapp of the compounds of the invention against recombinant CYP3A4 enzyme was performed as follows. The assay was performed in a 100 mM sodium phosphate buffer pH 7.0, 5 mM TCEP and containing 2% dimethylformamide (final concentration) upon addition of substrate and inhibitor. A typical reaction for the determination of Kiapp values was carried at room temperature in a solid black Costar u-bottom 96-well polypropylene plate. In each well, recombinant CYP3A4 enzyme (5.5 nM or 8 nM, final concentration depending on the commercial source of the enzyme) was pre-incubated in the presence of the inhibitor for at least 30 minutes in the assay buffer. When pre-incubation was completed (˜30 min), the reaction was initiated by adding NADPH (200 uM, final concentration), and 7-benzyloxy-4-(trifluoromethyl)-coumarin (BFC) (5 uM, final concentration). The oxidation of the coumarin substrate was recorded by a 96-well plate reader POLARstar (BMG LABTECH, Offenburg, Germany).
The initial reaction velocities were measured during the first 5 min of the reaction when the release of the fluorescent product is linear with time, in the absence and in the presence of various concentrations of inhibitors. For non-partial & partial inhibitors, the Kiapp values were determined by using the equation for tight-binding inhibitor developed by Morrison, J F (Morrison J F. Biochim Biophys Acta. 1969, 185: 269-86) and by Szedlaseck S E et al. (Szedlascek, S. E., Ostafe, V., Serban, M., and Vlad, M.O. Biochem. J. 1988, 254:311-312), respectively.
The fluorescent substrate BFC was purchased from Sigma (St Louis, Mo.). Two commercial sources of recombinant enzymes were used in this study: recombinant CYP3A4−b5 enzyme (Baculosomes®) was purchased from Invitrogen (Carlsbad, Calif.) and the recombinant CYP3A4+b5 enzyme (Supersomes®) was purchased from BD Biosciences (Woburn, Mass.).

CYP3A4 [2] = target: T1, CYP3A4; assay: Determination of IC50 against CYP3A4 by measurement of inhibition of midazolam metabolism (human liver microsomes, 1-hydroxymidazolam by LC-MS/MS); type: biochemical; design: 0.1 mg/mL human liver microsomes; conditions: 2 μM midazolam, 0.1 mg/mL human liver microsomes
Experimental: 3. Determination of IC50 Against CYP3A4 by Measurement of Inhibition of Midazolam Metabolism
This assay was performed using a standard 96 well plate design. […] The incubation substrate mix contains 2 μM midazolam, 0.1 mg/mL human liver microsomes, 1 mM NADPH, and potassium phosphate buffer (100 mM, pH 7.4). Quantitation of metabolite peak area ratio against internal standard is determined by LC-MS/MS analysis. The production of 1-hydroxymidazolam from midazolam metabolism is determined after incubation for eight minutes by comparison to a standard curve generated for the metabolite.
Samples were analyzed in the MRM mode using a Sciex API 3000 mass spectrometer (Applied Biosystems, Foster City, Calif.) with a Paradigm MS4 binary pump (Michrom BioResources Inc., Auburn, Calif.) and a LEAP CTC PAL autosampler (LEAP Technologies, Carrboro, N.C.). A Phenomenex Synergi, 4μ, Polar-RP, 10×2.0 mm column (Phenomenex, Torrance, Calif.) was used for separation with a mobile phase composition of: 0.1% formic acid in water (A) and: 0.1% formic acid in methanol (B). The following gradient was used: […]
The sample injection volume was 10 μL and flow was split post-column with 0.4 mL/min going to the mass spectrometer. Analysis was performed using the following API 3000 mass spectrometer settings: […]

[3] = Baculo. enzyme preparation, read-out: Kiapp (BFC, Baculo.)
[4] = Super. enzyme preparation, read-out: Kiapp (BFC, Super.)

T1 sequence (P08684 whole entry): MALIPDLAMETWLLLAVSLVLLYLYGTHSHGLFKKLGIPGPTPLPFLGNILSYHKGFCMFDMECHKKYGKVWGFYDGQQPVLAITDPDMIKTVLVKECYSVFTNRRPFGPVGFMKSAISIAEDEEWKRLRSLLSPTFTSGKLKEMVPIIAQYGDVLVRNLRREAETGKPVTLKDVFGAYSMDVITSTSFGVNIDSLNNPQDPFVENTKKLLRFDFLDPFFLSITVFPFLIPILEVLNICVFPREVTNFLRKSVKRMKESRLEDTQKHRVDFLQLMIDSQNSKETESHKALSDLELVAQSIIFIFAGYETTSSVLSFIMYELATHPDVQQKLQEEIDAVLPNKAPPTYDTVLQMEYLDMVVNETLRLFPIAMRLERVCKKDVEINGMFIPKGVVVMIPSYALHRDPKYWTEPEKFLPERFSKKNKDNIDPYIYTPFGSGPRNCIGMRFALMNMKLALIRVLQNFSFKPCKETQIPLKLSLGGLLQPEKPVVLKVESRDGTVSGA

Ki (CYP3A4 [1]; [3]) [nM]	Ki (CYP3A4 [1]; [4]) [nM]	IC50 (CYP3A4 [2]) [nM]	Structure (SMILES)
103	13.5	18	CCC(C)CNC(=O)c1ccccc1S(=O)(=O)Nc1cncc(C)c1 (stereo not drawn) [Example 118, N-(2-methylbutyl)-2-{[(5-methylpyridin-3-yl)amino]sulfonyl}benzamide]
448	54.9	67	COCCN(C(=O)c1ccccc1S(=O)(=O)Nc1cccnc1)C(C)C [Example 128, N-isopropyl-N-(2-methoxyethyl)-2-[(pyridin-3-ylamino)sulfonyl]benzamide]
78	25.4	8	Cc1cncc(NS(=O)(=O)c2ccccc2C(=O)NC(C)CC(C)C)c1 (stereo not drawn) [Example 95, N-(1,3-dimethylbutyl)-2-{[(5-methylpyridin-3-yl)amino]sulfonyl}benzamide]
124	26	23	CCOc1ccncc1NS(=O)(=O)c1ccccc1C(=O)NCC(C)CC (stereo not drawn) [Example 115, 2-{[(4-ethoxypyridin-3-yl)amino]sulfonyl}-N-(2-methylbutyl)benzamide]
43.9	5.9	18	Cc1cncc(NS(=O)(=O)c2ccccc2C(=O)N(C)Cc2ccc(C(F)(F)F)cc2)c1 [Example 145, N-methyl-2-{[(5-methylpyridin-3-yl)amino]sulfonyl}-N-[4-(trifluoromethyl)benzyl]benzamide]
49.5	10	31	CCOc1ccncc1NS(=O)(=O)c1ccccc1C(=O)N(C)Cc1ccc(C(F)(F)F)cc1 [Example 122, 2-{[(4-ethoxypyridin-3-yl)amino]sulfonyl}-N-methyl-N-[4-(trifluoromethyl)benzyl]benzamide]
214	44	57	CCOc1ccncc1NS(=O)(=O)c1ccccc1C(=O)N[C@@H](C)C(C)C [Example 107, N-[(1S)-12-dimethylpropyl]-2-{[(4-ethoxypyridin-3-yl)amino]sulfonyl}benzamide]
209	19.2	16	COc1cncc(NS(=O)(=O)c2ccccc2C(=O)NCc2cc(F)ccc2F)c1 [Example 147, N-(2,5-difluorobenzyl)-2-{[(5-methoxypyridin-3-yl)amino]sulfonyl}benzamide]
166	14.7	10	COc1ccccc1CNC(=O)c1ccccc1S(=O)(=O)Nc1cncc(C)c1 [Example 93, N-(2-methoxybenzyl)-2-{[(5-methylpyridin-3-yl)amino]sulfonyl}benzamide]
141	23.5	35	COc1ccncc1NS(=O)(=O)c1ccccc1C(=O)N(C)Cc1cccc(F)c1 [Example 104, N-(3-fluorobenzyl)-2-{[(4-methoxypyridin-3-yl)amino]sulfonyl}-N-methylbenzamide]
59.8	4.8	10	COc1cncc(NS(=O)(=O)c2ccccc2C(=O)NCCc2ccc(C)c(F)c2F)c1 [Example 136, N-[2-(2,3-difluoro-4-methylphenyl)ethyl]-2-{[(5-methoxypyridin-3-yl)amino]sulfonyl}benzamide]
72.5	15.2	10	COc1ccncc1NS(=O)(=O)c1ccccc1C(=O)N(C)Cc1ccc(C(F)(F)F)cc1 [Example 123, 2-{[(4-methoxypyridin-3-yl)amino]sulfonyl}-N-methyl-N-[4-(trifluoromethyl)benzyl]benzamide]

The next lines start with the compound.

Structure (SMILES)	Ki (CYP3A4 [1]; [3]) [nM]	Ki (CYP3A4 [1]; [4]) [nM]	IC50 (CYP3A4 [2]) [nM]
Cc1cncc(NS(=O)(=O)c2ccccc2C(=O)N(C)Cc2ccccc2F)c1 [Example 129, N-(2-fluorobenzyl)-N-methyl-2-{[(5-methylpyridin-3-yl)amino]sulfonyl}benzamide]	87.6	9.6	12
Cc1ccncc1NS(=O)(=O)c1ccccc1C(=O)N(C)Cc1ccc(F)cc1 [Example 144, N-(4-fluorobenzyl)-N-methyl-2-{[(4-methylpyridin-3-yl)amino]sulfonyl}benzamide]	327	39	72
Cc1ccncc1NS(=O)(=O)c1ccccc1C(=O)N(C)Cc1ccccc1 [Example 139, N-benzyl-N-methyl-2-{[(4-methylpyridin-3-yl)amino]sulfonyl}benzamide]	388	51.1	48
COc1cncc(NS(=O)(=O)c2ccccc2C(=O)N(Cc2nccn2C)C(C)C)c1 [Example 97, N-isopropyl-2-{[(5-methoxypyridin-3-yl)amino]sulfonyl}-N-[(1-methyl-1H-imidazol-2-yl)methyl]benzamide]	421	157	107
CN(c1cccnc1)S(=O)(=O)c1ccccc1C(=O)NCc1ccc(F)c(F)c1 [Example 327, N-(3,4-difluorobenzyl)-2-{[methyl(pyridin-3-yl)amino]sulfonyl}benzamide]	86.4	19.8	
CCCN(C(=O)c1ccccc1S(=O)(=O)Nc1cncc(OC)c1)C(C)C [Example 100, N-isopropyl-2-{[(5-methoxypyridin-3-yl)amino]sulfonyl}-N-propylbenzamide]	88.3	35.7	14
COc1ccncc1NS(=O)(=O)c1ccccc1C(=O)N(C)Cc1ccc(F)cc1 [Example 143, N-(4-fluorobenzyl)-2-{[(4-methoxypyridin-3-yl)amino]sulfonyl}-N-methylbenzamide]	169	29	58
CCOc1ccncc1NS(=O)(=O)c1ccccc1C(=O)N(C)Cc1cccc(F)c1 [Example 103, 2-{[(4-ethoxypyridin-3-yl)amino]sulfonyl}-N-(3-fluorobenzyl)-N-methylbenzamide]	129	26	21
COc1cncc(NS(=O)(=O)c2ccccc2C(=O)NCCc2ccc(F)c(F)c2)c1 [Example 137, N-[2-(3,4-difluorophenyl)ethyl]-2-{[(5-methoxypyridin-3-yl)amino]sulfonyl}benzamide]	115	7.3	18
CN(Cc1ccc(C(F)(F)F)cc1)C(=O)c1ccccc1S(=O)(=O)Nc1cccnc1 [Example 140, N-methyl-2-[(pyridin-3-ylamino)sulfonyl]-N-[4-(trifluoromethyl)benzyl]benzamide]	160	17.3	56
COc1cncc(NS(=O)(=O)c2ccccc2C(=O)N(CC(C)O)C(C)C)c1 (stereo not drawn) [Example 99, N-(2-hydroxypropyl)-N-isopropyl-2-{[(5-methoxypyridin-3-yl)amino]sulfonyl}benzamide]	406	223	90
COc1cncc(NS(=O)(=O)c2ccccc2C(=O)N(CCO)C(C)C)c1 [Example 98, N-(2-hydroxyethyl)-N-isopropyl-2-{[(5-methoxypyridin-3-yl)amino]sulfonyl}benzamide]	506	196	51
CC[C@H](C)CNC(=O)c1ccccc1S(=O)(=O)Nc1cncc(OC)c1 [Example 96, 2-{[(5-methoxypyridin-3-yl)amino]sulfonyl}-N-[(2S)-2-methylbutyl]benzamide]	124	22.3	9
COc1ccncc1NS(=O)(=O)c1ccccc1C(=O)N(C)Cc1ccccc1F [Example 125, N-(2-fluorobenzyl)-2-{[(4-methoxypyridin-3-yl)amino]sulfonyl}-N-methylbenzamide]	185	31.2	20
O=C(NCc1ccc(F)c(F)c1)c1ccccc1S(=O)(=O)Nc1cncc(OCc2ccccc2)c1 [Example 393, 2-({[5-(benzyloxy)pyridin-3-yl]amino}sulfonyl)-N-(3,4-diflorobenzyl)benzamide]			8
